Assays:
NCI-H23 = assay: Growth inhibition of human NCI-H23 cells at 10 uM after 24 hrs by MTT assay relative to control; assay type: functional; design: scale not given: the % may be the effect or the level left
EKVX = assay: Growth inhibition of human EKVX cells at 10 uM after 24 hrs by MTT assay relative to control; assay type: functional; design: scale not given: the % may be the effect or the level left
[1] = Growth inhibition of human Hs 578T cells at 10 uM after 24 hrs by MTT assay relative to control; assay type: functional; design: scale not given: the % may be the effect or the level left
HCT-15 = assay: Growth inhibition of human HCT15 cells at 10 uM after 24 hrs by MTT assay relative to control; assay type: functional; design: scale not given: the % may be the effect or the level left
786-0 = assay: Growth inhibition of human 786-0 cells at 10 uM after 24 hrs by MTT assay relative to control; assay type: functional; design: scale not given: the % may be the effect or the level left
SN12C = assay: Growth inhibition of human SN12C cells at 10 uM after 24 hrs by MTT assay relative to control; assay type: functional; design: scale not given: the % may be the effect or the level left
M14 = assay: Growth inhibition of human M14 cells at 10 uM after 24 hrs by MTT assay relative to control; assay type: functional; design: scale not given: the % may be the effect or the level left
T47D = assay: Growth inhibition of human T47D cells at 10 uM after 24 hrs by MTT assay relative to control; assay type: functional; design: scale not given: the % may be the effect or the level left
HOP-92 = assay: Growth inhibition of human HOP92 cells at 10 uM after 24 hrs by MTT assay relative to control; assay type: functional; design: scale not given: the % may be the effect or the level left
HCC 2998 = assay: Growth inhibition of human HCC2998 cells at 10 uM after 24 hrs by MTT assay relative to control; assay type: functional; design: scale not given: the % may be the effect or the level left
HT-29 = assay: Growth inhibition of human HT-29 cells at 10 uM after 24 hrs by MTT assay relative to control; assay type: functional; design: scale not given: the % may be the effect or the level left
HOP-62 = assay: Growth inhibition of human HOP62 cells at 10 uM after 24 hrs by MTT assay relative to control; assay type: functional; design: scale not given: the % may be the effect or the level left
SNB-75 = assay: Growth inhibition of human SNB75 cells at 10 uM after 24 hrs by MTT assay relative to control; assay type: functional; design: scale not given: the % may be the effect or the level left
SNB-19 = assay: Antitumor activity against human SNB19 cells after 24 hrs; assay type: functional, cell-based; conditions: SNB-19, 24 h
SR = assay: Growth inhibition of human SR cells at 10 uM after 24 hrs by MTT assay relative to control; assay type: functional; design: scale not given: the % may be the effect or the level left
KM12 = assay: Growth inhibition of human KM12 cells at 10 uM after 24 hrs by MTT assay relative to control; assay type: functional; design: scale not given: the % may be the effect or the level left
NCI-H522 = assay: Growth inhibition of human NCI-H522 cells at 10 uM after 24 hrs by MTT assay relative to control; assay type: functional; design: scale not given: the % may be the effect or the level left
K562 = assay: Growth inhibition of human K562 cells at 10 uM after 24 hrs by MTT assay relative to control; assay type: functional; design: scale not given: the % may be the effect or the level left
HCT-116 = assay: Growth inhibition of human HCT116 cells at 10 uM after 24 hrs by MTT assay relative to control; assay type: functional; design: scale not given: the % may be the effect or the level left
MOLT-4 = assay: Growth inhibition of human MOLT4 cells at 10 uM after 24 hrs by MTT assay relative to control; assay type: functional; design: scale not given: the % may be the effect or the level left
UACC-257 = assay: Growth inhibition of human UACC257 cells at 10 uM after 24 hrs by MTT assay relative to control; assay type: functional; design: scale not given: the % may be the effect or the level left
PC-3 = assay: Growth inhibition of human PC3 cells at 10 uM after 24 hrs by MTT assay relative to control; assay type: functional; design: scale not given: the % may be the effect or the level left
TK-10 = assay: Growth inhibition of human TK10 cells at 10 uM after 24 hrs by MTT assay relative to control; assay type: functional; design: scale not given: the % may be the effect or the level left
CCRF-CEM = assay: Growth inhibition of human CCRF-CEM cells at 10 uM after 24 hrs by MTT assay relative to control; assay type: functional; design: scale not given: the % may be the effect or the level left
U-251 = assay: Growth inhibition of human U251 cells at 10 uM after 24 hrs by MTT assay relative to control; assay type: functional; design: scale not given: the % may be the effect or the level left
UACC-62 = assay: Growth inhibition of human UACC62 cells at 10 uM after 24 hrs by MTT assay relative to control; assay type: functional; design: scale not given: the % may be the effect or the level left
BT-549 = assay: Growth inhibition of human BT549 cells at 10 uM after 24 hrs by MTT assay relative to control; assay type: functional; design: scale not given: the % may be the effect or the level left
MDA-MB-231 = assay: Growth inhibition of human MDA-MB-231 cells at 10 uM after 24 hrs by MTT assay relative to control; assay type: functional; design: scale not given: the % may be the effect or the level left
OVCAR-4 = assay: Growth inhibition of human OVCAR4 cells at 10 uM after 24 hrs by MTT assay relative to control; assay type: functional; design: scale not given: the % may be the effect or the level left

Work on `Cc1onc(-c2c3ccccc3c(Cl)c3ccccc23)c1C(=O)Nc1cc(C(=O)NCCCNC(=O)c2cc(NC(=O)c3c(-c4c5ccccc5c(Cl)c5ccccc45)noc3C)cn2C)n(C)c1` yielded an Activity (NCI-H23) of 105.33%, an Activity (EKVX) of 92.34% and an Activity [1] of 88.87%. It also gave an Activity (HCT-15) of 102.58%, an Activity (786-0) of 81.38% and an Activity (SN12C) of 106.37%. It also gave an Activity (M14) of 80.43%, an Activity (T47D) of 76.21% and an Activity (HOP-92) of 66.96%. The Activity (HCC 2998) was 130.16%, the Activity (HT-29) was 93.17% and the Activity (HOP-62) was 87.7%. The Activity (SNB-75) was 33.5%, the IC50 (SNB-19) was over 100 µM and the Activity (SR) was 87.99%. The Activity (KM12) was 96.11%, the Activity (NCI-H522) was 76.93% and the Activity (K562) was 98.76%. For the same molecule, the Activity (HCT-116) was 88.45%, the Activity (MOLT-4) was 91.53% and the Activity (UACC-257) was 86.93%. For the same molecule, the Activity (PC-3) was 76.05%, the Activity (TK-10) was 107.71% and the Activity (CCRF-CEM) was 84.24%. It also gave an Activity (U-251) of 80.63%, an Activity (UACC-62) of 76.22% and an Activity (BT-549) of 126.28%. The Activity (MDA-MB-231) was 86.9% and the Activity (OVCAR-4) was 67.84%.
